Assay results reported in US9918939B2, “Formulation of Syk inhibitors” (Gilead Connecticut, Inc., priority 2013, dated 2018).
Structures can show the parent of a compound that is named as a salt.

Assay: Stability studies of dry granulation tablet (HPLC, XRPD)
Type: physicochemical
Conditions: intragranular blend, milled granules, final blend of Formulation 1 (FIG. 4)

form change by XRPD during processing: no form change
Structure (SMILES): c1cn2cc(-c3ccc4cn[nH]c4c3)nc(Nc3ccc(N4CCOCC4)cc3)c2n1 [bis-mesylate salt of Formula IA]
